Data published in ChEMBL document CHEMBL1201862, “PubChem BioAssay data set” (2004).
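Values below derive from 48-hour exposures of cells grown in 96-well plates, with endpoints linearly interpolated between the two concentrations bracketing the appropriate inhibition level. GI50: concentration for 50% inhibition of growth.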 Active and inactive are the calls of the source. Cut-off read from the data, not from the text of the source: active = GI50 up to about 1.1 µM and inactive = higher.

Assays:
Test in all cases: inhibition of tumour cell growth, NCI panel, 48 h
T47D = tested on: T47D
A549 = tested on: A549
Hs-578T = tested on: Hs-578T
RXF 393 = tested on: RXF 393
EKVX = tested on: EKVX
SK-MEL-2 = tested on: SK-MEL-2
NCI/ADR-RES = tested on: NCI/ADR-RES
MDA-MB-231 = tested on: MDA-MB-231
HT-29 = tested on: HT-29
IGROV-1 = tested on: IGROV-1
SF-539 = tested on: SF-539
COLO 205 = tested on: COLO 205
SN12C = tested on: SN12C
LOX IMVI = tested on: LOX IMVI
SK-MEL-5 = tested on: SK-MEL-5
UACC-62 = tested on: UACC-62
OVCAR-5 = tested on: OVCAR-5
HOP-92 = tested on: HOP-92
NCI-H226 = tested on: NCI-H226
NCI-H522 = tested on: NCI-H522

| Structure (SMILES) | GI50 (T47D) | GI50 (A549) | GI50 (Hs-578T) | GI50 (RXF 393) | GI50 (EKVX) | GI50 (SK-MEL-2) | GI50 (NCI/ADR-RES) | GI50 (MDA-MB-231) | GI50 (HT-29) | GI50 (IGROV-1) | GI50 (SF-539) | GI50 (COLO 205) | GI50 (SN12C) | GI50 (LOX IMVI) | GI50 (SK-MEL-5) | GI50 (UACC-62) | GI50 (OVCAR-5) | GI50 (HOP-92) | GI50 (NCI-H226) | GI50 (NCI-H522) |
| --- | --- | --- | --- | --- | --- | --- | --- | --- | --- | --- | --- | --- | --- | --- | --- | --- | --- | --- | --- | --- |
| CN(C)c1ccc(/C=C/c2ccnc3ccccc23)cc1 | 96.8 µM (inactive) | 61.4 µM (inactive) | 14.5 µM (inactive) | 54.3 µM (inactive) | 49 µM (inactive) | 58.2 µM (inactive) | 64.3 µM (inactive) | 23.3 µM (inactive) | 25.3 µM (inactive) | > 100 µM (inactive) | > 100 µM (inactive) | 28.8 µM (inactive) | 64.9 µM (inactive) | 53.3 µM (inactive) | 75.9 µM (inactive) | 43.1 µM (inactive) | > 100 µM (inactive) | 93.3 µM (inactive) |  |  |
| N#Cc1c(-c2ccco2)c2c(n(C3OC(CO)C(O)C(O)C3O)c1=S)CCCC2 (stereo not given) | 85.5 µM (inactive) | > 100 µM (inactive) | > 100 µM (inactive) | > 100 µM (inactive) | > 100 µM (inactive) | > 100 µM (inactive) | > 100 µM (inactive) | > 100 µM (inactive) | > 100 µM (inactive) | > 100 µM (inactive) | > 100 µM (inactive) | > 100 µM (inactive) | > 100 µM (inactive) | > 100 µM (inactive) | 85.9 µM (inactive) | > 100 µM (inactive) | > 100 µM (inactive) | > 100 µM (inactive) | > 100 µM (inactive) | > 100 µM (inactive) |
| CC(=O)OC(C)(C)/C=C/C(=O)[C@](C)(O)[C@H]1[C@H](O)C[C@@]2(C)[C@@H]3CC=C4[C@@H](C[C@H](O)C(=O)C4(C)C)[C@]3(C)C(=O)C[C@]12C | 0.0362 µM (active) | < 0.01 µM (active) | < 0.01 µM (active) | < 0.01 µM (active) | 0.0102 µM (active) | < 0.01 µM (active) | 0.0112 µM (active) | < 0.01 µM (active) | < 0.01 µM (active) | < 0.01 µM (active) | < 0.01 µM (active) | < 0.01 µM (active) | < 0.0143 µM (active) | < 0.01 µM (active) | < 0.01 µM (active) | < 0.01 µM (active) | < 0.0246 µM (active) | 0.0175 µM (active) | < 0.01 µM (active) | < 0.01 µM (active) |
| CC1(C)C2CC(O)C1(C)CC2=O (stereo not given) | > 100 µM (inactive) | > 100 µM (inactive) | > 100 µM (inactive) | > 100 µM (inactive) |  |  | > 100 µM (inactive) | > 100 µM (inactive) | > 100 µM (inactive) | > 100 µM (inactive) | > 100 µM (inactive) | > 100 µM (inactive) | > 100 µM (inactive) | > 100 µM (inactive) | > 100 µM (inactive) | > 100 µM (inactive) | > 100 µM (inactive) | > 100 µM (inactive) | > 100 µM (inactive) | > 100 µM (inactive) |
| O=C1CCc2cc3c(cc21)CC1(Cc2ccccc2C1)C3 | 20.2 µM (inactive) | 12 µM (inactive) | 52.1 µM (inactive) | 33 µM (inactive) | > 27.3 µM (inactive) | 2.11 µM (inactive) | 7.31 µM (inactive) | 12 µM (inactive) | 3.14 µM (inactive) | 4.3 µM (inactive) | 9.12 µM (inactive) | 3.79 µM (inactive) | 19.9 µM (inactive) | 8.02 µM (inactive) | 5.77 µM (inactive) | 21.1 µM (inactive) | 16.3 µM (inactive) | 6.32 µM (inactive) | 12.9 µM (inactive) | 9.14 µM (inactive) |
| COc1ccc(C[C@@H]2OC3(C=CC(=O)C=C3)O[C@H]2Cc2ccc(OC)cc2)cc1 | 0.291 µM (active) | 3.1 µM (inactive) | 0.971 µM (active) | 0.277 µM (active) | 1.89 µM (inactive) | 1.38 µM (inactive) | 0.822 µM (active) | 1.39 µM (inactive) | 0.766 µM (active) | 0.317 µM (active) | 1.14 µM (inactive) | 1.43 µM (inactive) | 1.05 µM (active) | 0.172 µM (active) | 1.52 µM (inactive) | 1.72 µM (inactive) | 0.832 µM (active) | 0.653 µM (active) | 0.232 µM (active) | 0.147 µM (active) |
| COc1ccc([N+](=O)[O-])c2c(NCCCN(C)C)c3ccccc3nc12 | 0.2 µM (active) | 0.0843 µM (active) | 0.682 µM (active) | 0.0838 µM (active) | 0.107 µM (active) | 0.131 µM (active) | 2.87 µM (inactive) | 0.466 µM (active) | 0.07 µM (active) | 0.05 µM (active) | 0.308 µM (active) | 0.0953 µM (active) | 0.26 µM (active) | 0.461 µM (active) | 0.106 µM (active) | 0.127 µM (active) | 0.272 µM (active) | 0.0782 µM (active) | 0.225 µM (active) | 0.0286 µM (active) |
| O=[N+]([O-])c1ccc([I+]c2ccccc2)cc1 | 6.52 µM (inactive) | 6.64 µM (inactive) | 3.85 µM (inactive) | 3.54 µM (inactive) | 15.7 µM (inactive) |  | 8.3 µM (inactive) | 3.95 µM (inactive) | 2.97 µM (inactive) | 16.4 µM (inactive) | 7.11 µM (inactive) | 3.11 µM (inactive) | 1.61 µM (inactive) |  | 8.04 µM (inactive) | 2.96 µM (inactive) | 7.98 µM (inactive) | 9.79 µM (inactive) | 9.08 µM (inactive) | 1.92 µM (inactive) |
| N#Cc1ccc2[nH]c3c(c2c1)CC(=O)Nc1ccccc1-3 [PAULLONE 2] | > 100 µM (inactive) | > 100 µM (inactive) | > 100 µM (inactive) | > 100 µM (inactive) | > 100 µM (inactive) | > 100 µM (inactive) | > 100 µM (inactive) | > 100 µM (inactive) | > 100 µM (inactive) | 99.8 µM (inactive) | > 100 µM (inactive) | > 100 µM (inactive) |  | > 100 µM (inactive) | > 100 µM (inactive) | > 100 µM (inactive) | > 100 µM (inactive) | > 100 µM (inactive) | > 100 µM (inactive) | 28.8 µM (inactive) |
| CCOC(=O)c1ccc(/N=C/C=C(\Nc2ccc(C(=O)OCC)cc2)c2ccc3ccccc3c2)cc1 | 13.9 µM (inactive) | 34.5 µM (inactive) | 31.1 µM (inactive) | 21.1 µM (inactive) |  | 23.5 µM (inactive) | 21.5 µM (inactive) | 25.1 µM (inactive) | 18.4 µM (inactive) | 36.2 µM (inactive) | 20.2 µM (inactive) | 16.2 µM (inactive) | 26.7 µM (inactive) | 15.7 µM (inactive) | 18.3 µM (inactive) | 14 µM (inactive) | 48.4 µM (inactive) | 78 µM (inactive) | 34 µM (inactive) | 27.5 µM (inactive) |
| Cc1cc2c(cc1C)C(=O)/C(=N/Nc1ccc(F)cc1)CCO2 | 5.04 µM (inactive) | > 100 µM (inactive) | > 100 µM (inactive) |  | > 100 µM (inactive) | 20.4 µM (inactive) | > 100 µM (inactive) | > 100 µM (inactive) | 24.6 µM (inactive) | > 100 µM (inactive) | > 100 µM (inactive) | > 100 µM (inactive) | > 100 µM (inactive) | 65.8 µM (inactive) | 95.3 µM (inactive) | > 100 µM (inactive) | > 100 µM (inactive) | > 100 µM (inactive) | > 100 µM (inactive) | > 100 µM (inactive) |
| CN(C)/N=N/c1[nH]cnc1C(N)=O [DACARBAZINE] | > 92.3 µM (inactive) | 96.2 µM (inactive) | 63 µM (inactive) | 82.8 µM (inactive) |  | 9.82 µM (inactive) | 66.4 µM (inactive) | 51.3 µM (inactive) | 87.7 µM (inactive) | 68.5 µM (inactive) | 65.6 µM (inactive) | 78.9 µM (inactive) | 78.7 µM (inactive) | 11.7 µM (inactive) | 74.6 µM (inactive) | 35.3 µM (inactive) | 81.5 µM (inactive) | 30.3 µM (inactive) | 75.2 µM (inactive) | 67.1 µM (inactive) |
| O=c1c2c3c(sc2nc2n1N=CN(c1ccccc1)C2)CCCC3 | > 100 µM (inactive) | > 100 µM (inactive) | > 100 µM (inactive) | > 100 µM (inactive) | > 100 µM (inactive) | > 100 µM (inactive) | > 100 µM (inactive) | > 100 µM (inactive) | > 100 µM (inactive) | > 100 µM (inactive) |  | > 100 µM (inactive) | > 100 µM (inactive) | > 100 µM (inactive) | > 100 µM (inactive) | > 100 µM (inactive) | > 100 µM (inactive) | > 100 µM (inactive) | > 100 µM (inactive) | > 100 µM (inactive) |
| CNC(=O)OC(C)CN1c2ccccc2Sc2ccccc21 (stereo not given) | > 100 µM (inactive) | 86.3 µM (inactive) | > 100 µM (inactive) | 36.2 µM (inactive) | 51.4 µM (inactive) |  | 76 µM (inactive) | > 100 µM (inactive) | 80 µM (inactive) | 59.3 µM (inactive) | 64.3 µM (inactive) | 41.2 µM (inactive) | > 100 µM (inactive) | 75.2 µM (inactive) | 59.8 µM (inactive) | > 100 µM (inactive) | > 100 µM (inactive) | 76.9 µM (inactive) | > 100 µM (inactive) | > 100 µM (inactive) |
| COc1cc(/C=N\N(C)C)cc(/C=N/N(C)C)c1O | 1.98 µM (inactive) | > 100 µM (inactive) | 3.53 µM (inactive) | 43.1 µM (inactive) |  | 7.89 µM (inactive) | 25.4 µM (inactive) | 25.8 µM (inactive) | 10.6 µM (inactive) |  | 6.03 µM (inactive) | 17.1 µM (inactive) | 14.4 µM (inactive) | 25.1 µM (inactive) | 26.2 µM (inactive) | 28.1 µM (inactive) |  | 6.14 µM (inactive) | 15.8 µM (inactive) | 65.9 µM (inactive) |
